Test results published in patent US20020115724A1, “Methods and agents for inhibiting protein aging” (priority 1985, published 2002).
Counter-ions that a name gives are not always drawn.

Experiments:
[1] = tested on: gelatin (collagen); experiment: Protein trapping: radioiodinated albumin bound to gelatin (collagen) agarose beads with glucose-6-phosphate; format: biochemical; conditions: agent 200 mN, 400 mN glucose-6-phosphate, two weeks, 37° C.
Source text: To more precisely measure the effect of the agents on the inhibition of protein crosslinking, an assay system was devised to measure the extent of in vitro binding of a soluble protein to an insoluble protein. This assay system mimics the events which occur in tissues in which serum proteins become bound to proteins in extravascular matrix and which lead to accumulation of protein and narrowing of vessel lumina in several other tissues. These events in vivo give rise to kidney disease and atherosclerotic disease, and lead to the pathologies associated with diabetes and aging.
To measure protein trapping (i.e., binding or accumulation), gelatin (collagen) was coupled to activated agarose beads (Affigel 10, Bio-Red Laboratories) by routine methods. After coupling, all remaining active sites on the beads were quenched by reaction with glycine ethyl ester.
The beads were incubated for two weeks with bovine serum albumin and 400 mN glucose-6-phosphate, a more reactive form of glucose which forms early glycosylation products with proteins more rapidly than does glucose. […] The bovine serum albumin was radioiodinated so that the amount which became bound to the beads could be measured. […]
After a two-week incubation of the reaction mixtures at 37° C., the beads were washed extensively with chaotropic agents and the covalently bound radioactivity was determined. […]

[2] = tested on: calf skin collagen; experiment: Calf skin collagen crosslinking by glucose: solubilization in 2% sodium dodecyl sulfate; format: biochemical; conditions: 140 mM glucose, 200 mM aminoguanidine, 3 weeks, 35° C.
Experimental: As a further evaluation of the compound aminoguanidine as a model for the prevention of protein trapping, crosslinking and formation of advanced glycosylation end products, the following experiment using calf skin collagen was performed. Collagen is a protein in the skin responsible for the suppleness of skin, and crosslinking leads to wrinkling, decreased elasticity, reduced susceptibility to proteolytic degradation, and other changes.
Collagen from samples of calf skin were extracted into acetic acid and then precipitated with 0.6 M sodium chloride. These procedures removed from the solution skin collagen that was already permanently crosslinked or denatured. Native collagen fibrils were reformed by dialysis against 0.02M phosphate buffer, and these were incubated for 3 weeks at 35° C. in the presence of 140 mM glucose and with or without 200 mM aminoguanidine. After incubation, the samples were dialyzed and the degree of crosslinking was determined by two methods. First, the amount of reacted collagen which could be solubilized by treatment in 2% sodium dodecyl sulfate at 100° C. was measured.

[3] = tested on: normal and diabetic rats; experiment: Cross-linking of lipoprotein to aorta collagen, ELISA for apolipoprotein-B; format: in vivo, rat; conditions: 25 mg/kg daily i.p., 16 weeks
Experimental: The experiment consisted of giving both normal and diabetic rats daily intraperitoneal doses of the agent aminoguanidine hydrochloride at a dose of 25 mg per kilogram of body weight, for a period of 16 weeks. […] Diabetes was induced prior to drug therapy with a single dose of streptozotocin. Control animals, both diabetic and normal, received no drug.
Aorta samples from the same group of animals described in Example IV above, were subjected to analysis for cross-linking of lipoprotein to collagen, using an enzyme immunoassay. A standard ELISA procedure was employed, using antiserum to rat apoliproprotein-B raised in rabbits, peroxidase-labeled anti-rabbit antibody, and standard chromogenic reagents to detect quantity of antibody bound.

[4] = tested on: demineralized bone matrix particles; experiment: Bone differentiation of AGE-modified demineralized bone matrix implanted in rats; format: in vivo, rat
Experimental: In order to assess the possible role of hyperglycemia-induced matrix modifications in this process, demineralized bone matrix particles from 35 week old normal Long-Evans rats were prepared. Matrix is incubated in phosphate buffered saline alone (PBS), PBS containing various sugar precursors of AGE (PBS−G), and PBS with sugars plus the AGE-inhibitor aminoguanidine (PBS−G+AG). After incubation, the matrix is washed and implanted subcutaneously in normal rats. Twelve days after implantation, ^45CaCl2 is injected to determine implant mineralization, and alkaline phosphatase activity is measured to assess osteoblast function. Duplicate specimens are fixed, embedded and stained for histologic evaluation.

[5] = tested on: BB/Worcester rat; experiment: Tail tendon collagen solubility (pepsin), BB/Worcester rats; format: in vivo; conditions: 6 months; for Collagen Solubility: tail tendon
Experimental: Streptozotocin-diabetic male Lewis rats were treated for a 9-month time period with daily doses of aminoguanidine hydrochloride of 0, 6.25, 12.5, 25, and 50 mg/kg/day. After the treatment period, collagen in tail tendon fiber was subjected to solubility determination. Ten mg samples were incubated with gentle rocking for 5 hours at 4° C. in 5 ml of 0.5M acetic acid containing 1 mg pepsin. The samples were then centrifuged at 50,000× g for 1 hour, and the soluble and insoluble fraction separated by decanting. Each fraction was hydrolyzed in 6N HCl and total hydroxyproline measured.
The effect of aminoguanidine administration on collagen cross-linking was examined in a genetically-diabetic animal model, the BB/Worcester rat. Once the animals become diabetic, daily insulin injections are essential for survival. Glucose levels are maintained at a moderate level (250-350 mg %), much lower than in the streptozotocin-diabetic animals (>500 mg %).
Diabetic and non-diabetic controls were treated orally with aminoguanidine hydrochloride at 12.5 and 50 mg/kg/day for 6 months. Control animals were dosed with water only. Tail tendon collagen solubility was then determined by the pepsin method described in Example IX.

[6] = Irritation on intraperitoneal injection, salt compared with free base; format: in vivo
[7] = tested on: streptozotocin-diabetic rat; conditions: streptozotocin-diabetic rat model; cited from earlier work
[8] = tested on: diabetic rats; conditions: cited from earlier work
[9] = tested on: Laminin B1 mRNA; conditions: diabetic rats; cited from earlier work

**Q.** Which “amount of protein trapping (radiolabeled albumin bound to collagen beads)” value [1] does the source give for `N=C(N)NN` [aminoguanidine hydrochloride] here?
**A.** The value was “greatly reduced”.

**Q.** And the “solubility of reacted collagen in 2% sodium dodecyl sulfate at 100° C.” value [2]?
**A.** The value was “as soluble as collagen incubated in buffer alone”.

**Q.** And the “LIPOPROTEIN BOUND PER MG COLLAGEN” value ([3]; diabetic rats)?
**A.** The value was 0.64.

**Q.** And the “LIPOPROTEIN BOUND PER MG COLLAGEN” value ([3]; normal rats)?
**A.** Its value is 0.53.

**Q.** What about the bone differentiation ([4]; matrix incubated with AGE precursor plus aminoguanidine, implanted subcutaneously, 12 days) of the same compound?
**A.** The bone differentiation was 80 % of control.

**Q.** What about the “matrix AGE content (specific fluorescence)” value ([4]; simultaneous incubation of matrix with AGE precursor and aminoguanidine) of the same compound?
**A.** The value was “reduced fluorescence to normal”.

**Q.** And the “prevention of the diabetes-induced fall in tail tendon collagen solubility” value ([5]; 12.5 and 50 mg/kg/day orally)?
**A.** Its value is “prevented significantly, in a dose-dependent manner”.

**Q.** And the “Collagen Solubility” value ([5]; Diabetic, 12.5 mg/kg/day orally)?
**A.** The value was 66.7 ± 1.2%.

**Q.** And the “Collagen Solubility” value ([5]; Diabetic, 50 mg/kg/day orally)?
**A.** Its value is 75.9 ± 0.4%.

**Q.** What about the “Collagen Solubility” value ([5]; Normal, 50 mg/kg/day orally) of the same compound?
**A.** Its value is 88.2 ± 0.2%.

**Q.** What about the “irritation compared with the parent free base” value [6] of the same compound?
**A.** Its value is “less irritating”.

**Q.** And the “increased glomerular basement membrane thickness” value [7]?
**A.** Its value is “prevented”.

**Q.** What about the “increased cross-linking of collagen (tendon fiber breaking time in urea bath, mechanical strength)” value [8] of the same compound?
**A.** Its value is “prevented”.

**Q.** And the “diabetes-induced increase in laminin mRNA in the kidney” value [9]?
**A.** Its value is “prevents the diabetes-induced increase in laminin MRNA in the kidney”.
